Measurements reported in PubChem BioAssay AID2060493 (Molecular Pharmacology Branch, DTP, NCI, 2025).

Tested on: 616215-338-R-J1-PDC tumor spheroids, viability
Experiment: Anticancer human tumor 616215-338-R-J1-PDC patient-derived colon adenocarcinoma cell line growth inhibition [GQUAD]
Details: spheroids with HUVEC and MSC; for IC50: curve of first compound; for viability, T/C: stronger effect = lower value
Procedure, shortened: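 Viability of tumor cells grown as complex spheroids with endothelial and stromal cells, exposed to drug combinations. Top concentration at or near clinical Cmax (else 10 microM), diluted in half-log increments.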

[1] = second compound 0.0316 µM, first compound 0.0316 µM
[2] = second compound 0.0316 µM, first compound 0.1 µM
[3] = second compound 0.0316 µM, first compound 0.316 µM
[4] = second compound 0.0316 µM, first compound 1 µM
[5] = second compound 0.0316 µM, first compound 3.16 µM
[6] = second compound 0.0316 µM, first compound 10 µM
[7] = second compound 0.1 µM, first compound 0.0316 µM
[8] = second compound 0.1 µM, first compound 0.1 µM
[9] = second compound 0.1 µM, first compound 0.316 µM
[10] = second compound 0.1 µM, first compound 1 µM
[11] = second compound 0.1 µM, first compound 3.16 µM
[12] = second compound 0.1 µM, first compound 10 µM
[13] = second compound 0.316 µM, first compound 0.0316 µM
[14] = second compound 0.316 µM, first compound 0.1 µM
[15] = second compound 0.316 µM, first compound 0.316 µM
[16] = second compound 0.316 µM, first compound 1 µM
[17] = second compound 0.316 µM, first compound 3.16 µM
[18] = second compound 0.316 µM, first compound 10 µM
[19] = second compound 1 µM, first compound 0.0316 µM
[20] = second compound 1 µM, first compound 0.1 µM
[21] = second compound 1 µM, first compound 0.316 µM
[22] = second compound 1 µM, first compound 1 µM
[23] = second compound 1 µM, first compound 3.16 µM
[24] = second compound 1 µM, first compound 10 µM
[25] = second compound 3.16 µM, first compound 0.0316 µM
[26] = second compound 3.16 µM, first compound 0.1 µM
[27] = second compound 3.16 µM, first compound 0.316 µM
[28] = second compound 3.16 µM, first compound 1 µM
[29] = second compound 3.16 µM, first compound 3.16 µM
[30] = second compound 3.16 µM, first compound 10 µM
[31] = second compound 10 µM, first compound 0.0316 µM
[32] = second compound 10 µM, first compound 0.1 µM
[33] = second compound 10 µM, first compound 0.316 µM
[34] = second compound 10 µM, first compound 1 µM
[35] = second compound 10 µM, first compound 3.16 µM
[36] = second compound 10 µM, first compound 10 µM
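Note: spheroids exposed to agents for 7 days before readout.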
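Throughout, for viability, T/C: percent viability relative to DMSO vehicle control wells taken as 100%.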

CC(=O)O[C@H]1C(=O)[C@@]2(C)[C@H]([C@H](OC(=O)c3ccccc3)[C@]3(O)C[C@H](OC(=O)[C@H](O)[C@@H](NC(=O)c4ccccc4)c4ccccc4)C(C)=C1C3(C)C)[C@]1(OC(C)=O)CO[C@@H]1C[C@@H]2O + Cc1cnc(CNC(=O)c2c(=O)c3ccc(N4CCCN(C)CC4)nc3n3c2sc2ccccc23)cn1
IC50 (second compound 0.0316 µM): < 31.6 nM | IC50 (second compound 0.1 µM): < 31.6 nM | IC50 (second compound 0.316 µM): < 31.6 nM | IC50 (second compound 1 µM): < 31.6 nM | IC50 (second compound 3.16 µM): < 31.6 nM | IC50 (second compound 10 µM): < 31.6 nM | viability, T/C [1]: 37.2% | viability, T/C [2]: 24.9% | viability, T/C [3]: 20.3% | viability, T/C [4]: 15.9% | viability, T/C [5]: 27.6% | viability, T/C [6]: 17.1% | viability, T/C [7]: 26.9% | viability, T/C [8]: 35.8% | viability, T/C [9]: 31.1% | viability, T/C [10]: 26.7% | viability, T/C [11]: 26.2% | viability, T/C [12]: 32% | viability, T/C [13]: 37% | viability, T/C [14]: 34.4% | viability, T/C [15]: 38.5% | viability, T/C [16]: 36.4% | viability, T/C [17]: 39.4% | viability, T/C [18]: 24.7% | viability, T/C [19]: 22.9% | viability, T/C [20]: 35.4% | viability, T/C [21]: 30.1% | viability, T/C [22]: 37.9% | viability, T/C [23]: 30.2% | viability, T/C [24]: 33.8% | viability, T/C [25]: 26.6% | viability, T/C [26]: 21.6% | viability, T/C [27]: 28.9% | viability, T/C [28]: 35.8% | viability, T/C [29]: 22.5% | viability, T/C [30]: 30.2% | viability, T/C [31]: 25% | viability, T/C [32]: 22.3% | viability, T/C [33]: 27.9% | viability, T/C [34]: 25% | viability, T/C [35]: 24.4% | viability, T/C [36]: 25.8%

CCCS(=O)(=O)Nc1ccc(F)c(C(=O)c2c[nH]c3ncc(-c4ccc(Cl)cc4)cc23)c1F + Cc1cnc(CNC(=O)c2c(=O)c3ccc(N4CCCN(C)CC4)nc3n3c2sc2ccccc23)cn1
IC50 (second compound 0.0316 µM): 5390 nM | IC50 (second compound 0.1 µM): 2100 nM | IC50 (second compound 0.316 µM): < 31.6 nM | IC50 (second compound 1 µM): < 31.6 nM | IC50 (second compound 3.16 µM): < 31.6 nM | IC50 (second compound 10 µM): < 31.6 nM | viability, T/C [1]: 107% | viability, T/C [2]: 110% | viability, T/C [3]: 113% | viability, T/C [4]: 104% | viability, T/C [5]: 90% | viability, T/C [6]: 3.94% | viability, T/C [7]: 58.2% | viability, T/C [8]: 59% | viability, T/C [9]: 56% | viability, T/C [10]: 48.5% | viability, T/C [11]: 49.9% | viability, T/C [12]: 10.5% | viability, T/C [13]: 34.4% | viability, T/C [14]: 43.5% | viability, T/C [15]: 38.5% | viability, T/C [16]: 38.4% | viability, T/C [17]: 33.1% | viability, T/C [18]: 8.31% | viability, T/C [19]: 31% | viability, T/C [20]: 34.2% | viability, T/C [21]: 36.7% | viability, T/C [22]: 35.9% | viability, T/C [23]: 37.1% | viability, T/C [24]: 4.42% | viability, T/C [25]: 31.1% | viability, T/C [26]: 18.5% | viability, T/C [27]: 32.4% | viability, T/C [28]: 23% | viability, T/C [29]: 27.7% | viability, T/C [30]: 0.11% | viability, T/C [31]: 15.7% | viability, T/C [32]: 21.4% | viability, T/C [33]: 27.6% | viability, T/C [34]: 19.2% | viability, T/C [35]: 23.9% | viability, T/C [36]: 0.17%

COc1cccc2c1C(=O)c1c(O)c3c(c(O)c1C2=O)CC(O)(C(=O)CO)CC3OC1CC(N)C(O)C(C)O1 (stereo not given) + Cc1cnc(CNC(=O)c2c(=O)c3ccc(N4CCCN(C)CC4)nc3n3c2sc2ccccc23)cn1
IC50 (second compound 0.0316 µM): 381 nM | IC50 (second compound 0.1 µM): 410 nM | IC50 (second compound 0.316 µM): < 31.6 nM | IC50 (second compound 1 µM): < 31.6 nM | IC50 (second compound 3.16 µM): < 31.6 nM | IC50 (second compound 10 µM): < 31.6 nM | viability, T/C [1]: 102% | viability, T/C [2]: 54.7% | viability, T/C [3]: 50.2% | viability, T/C [4]: 40.5% | viability, T/C [5]: 20.2% | viability, T/C [6]: 1.32% | viability, T/C [7]: 56% | viability, T/C [8]: 67.4% | viability, T/C [9]: 49.7% | viability, T/C [10]: 39.2% | viability, T/C [11]: 19.4% | viability, T/C [12]: 1.25% | viability, T/C [13]: 38.2% | viability, T/C [14]: 39% | viability, T/C [15]: 32% | viability, T/C [16]: 27.7% | viability, T/C [17]: 19.9% | viability, T/C [18]: 0.1% | viability, T/C [19]: 28.1% | viability, T/C [20]: 37.7% | viability, T/C [21]: 34.5% | viability, T/C [22]: 26% | viability, T/C [23]: 12.6% | viability, T/C [24]: 0.1% | viability, T/C [25]: 29.8% | viability, T/C [26]: 28.1% | viability, T/C [27]: 35.1% | viability, T/C [28]: 16.4% | viability, T/C [29]: 15.3% | viability, T/C [30]: 0.16% | viability, T/C [31]: 28% | viability, T/C [32]: 20.8% | viability, T/C [33]: 28.3% | viability, T/C [34]: 23.1% | viability, T/C [35]: 3.24% | viability, T/C [36]: 0.25%

Nc1ccn(C2OC(CO)C(O)C2(F)F)c(=O)n1 (stereo not given) + Cc1cnc(CNC(=O)c2c(=O)c3ccc(N4CCCN(C)CC4)nc3n3c2sc2ccccc23)cn1
IC50 (second compound 0.0316 µM): < 31.6 nM | IC50 (second compound 0.1 µM): 109 nM | IC50 (second compound 0.316 µM): < 31.6 nM | IC50 (second compound 1 µM): < 31.6 nM | IC50 (second compound 3.16 µM): < 31.6 nM | IC50 (second compound 10 µM): < 31.6 nM | viability, T/C [1]: 35.4% | viability, T/C [2]: 35.6% | viability, T/C [3]: 16.7% | viability, T/C [4]: 14.6% | viability, T/C [5]: 17.8% | viability, T/C [6]: 14.1% | viability, T/C [7]: 48.2% | viability, T/C [8]: 56.5% | viability, T/C [9]: 20.4% | viability, T/C [10]: 16.5% | viability, T/C [11]: 19.9% | viability, T/C [12]: 14.9% | viability, T/C [13]: 45.8% | viability, T/C [14]: 26.8% | viability, T/C [15]: 17.7% | viability, T/C [16]: 20.3% | viability, T/C [17]: 15.1% | viability, T/C [18]: 17% | viability, T/C [19]: 32.5% | viability, T/C [20]: 30.7% | viability, T/C [21]: 24.1% | viability, T/C [22]: 28.2% | viability, T/C [23]: 18.3% | viability, T/C [24]: 18.4% | viability, T/C [25]: 28.4% | viability, T/C [26]: 41.8% | viability, T/C [27]: 24% | viability, T/C [28]: 20.4% | viability, T/C [29]: 16.4% | viability, T/C [30]: 23.5% | viability, T/C [31]: 28.4% | viability, T/C [32]: 28.8% | viability, T/C [33]: 22.4% | viability, T/C [34]: 21% | viability, T/C [35]: 20% | viability, T/C [36]: 18.5%

O=c1[nH]cc(F)c(=O)[nH]1 + Cc1cnc(CNC(=O)c2c(=O)c3ccc(N4CCCN(C)CC4)nc3n3c2sc2ccccc23)cn1
IC50 (second compound 0.0316 µM): 786 nM | IC50 (second compound 0.1 µM): 559 nM | IC50 (second compound 0.316 µM): < 31.6 nM | IC50 (second compound 1 µM): < 31.6 nM | IC50 (second compound 3.16 µM): < 31.6 nM | IC50 (second compound 10 µM): < 31.6 nM | viability, T/C [1]: 98.8% | viability, T/C [2]: 98.7% | viability, T/C [3]: 62.9% | viability, T/C [4]: 51.5% | viability, T/C [5]: 40.4% | viability, T/C [6]: 35.8% | viability, T/C [7]: 66.8% | viability, T/C [8]: 62.4% | viability, T/C [9]: 54.1% | viability, T/C [10]: 40.4% | viability, T/C [11]: 46.5% | viability, T/C [12]: 31.5% | viability, T/C [13]: 40.9% | viability, T/C [14]: 48.7% | viability, T/C [15]: 54.6% | viability, T/C [16]: 36.1% | viability, T/C [17]: 43% | viability, T/C [18]: 39.2% | viability, T/C [19]: 32.4% | viability, T/C [20]: 39.2% | viability, T/C [21]: 42.6% | viability, T/C [22]: 33.4% | viability, T/C [23]: 36.6% | viability, T/C [24]: 22.4% | viability, T/C [25]: 31.7% | viability, T/C [26]: 25.2% | viability, T/C [27]: 22.1% | viability, T/C [28]: 30.3% | viability, T/C [29]: 34.1% | viability, T/C [30]: 28.7% | viability, T/C [31]: 25.7% | viability, T/C [32]: 28.7% | viability, T/C [33]: 25.6% | viability, T/C [34]: 30.3% | viability, T/C [35]: 25.6% | viability, T/C [36]: 30.4%
